Results from patent publication US7041625B2, “Method to inhibit ethylene responses in plants” (Rohm and Haas Company, priority 2003, dated 2006).

What was measured:
[1] = test system: ethylene-induced epinasty in tomato plants; assay: Tomato epinasty test, volatile gas treatment; type: in vivo, Patio variety tomato seedlings; conditions: ethylene 10 ppm v/v injected four hours later, scored visually sixteen hours later, 10 = complete protection, 0 = no protection; for Gas @ 10 ppm: degree of protection against ethylene-induced epinasty, rating on a scale of 0 to 10: compound as volatile gas at 10 ppm v/v
Experimental: (§1) Objective: The test procedure is designed to determine the ability of an experimental compound to block the epinastic growth response induced by ethylene in tomato plants when the experimental compound is administered either as a volatile gas or as a component of a spray solution.
(§2) Treatment chambers are of an appropriate size for the test plants and are airtight. Each is fitted with a reusable septum to be used for injection of ethylene. Test plants are Patio variety tomato seedlings planted two plants per three inch square plastic pot.
Volatile gas treatment entails placing two pots of Patio var. tomatoes into a polystyrene 4.8 L volume treatment chamber along with one-half (upper or lower section) of a 50×9 mm plastic Petri dish containing a Gelman filter pad. The appropriate amount of experimental compound, dissolved in 1.0 ml acetone, is pipetted onto the filter pad and the chamber immediately sealed. Four hours later ethylene gas equal to 10 ppm v/v final concentration is injected into the sealed chamber. Sixteen hours later the chambers are opened in an exhaust hood, allowed to air and the plants scored visually for the degree of protection against ethylene-induced epinasty conferred by the experimental compound when compared to ethylene treated and untreated controls on a scale of 0 to 10. A rating of 10 means complete protection. A rating of 0 means no protection from the effects of ethylene. Gas treatment concentrations are volume/volume.

[2] = test system: ethylene-induced epinasty in tomato plants; assay: Tomato epinasty test, spray application treatment; type: in vivo, Patio variety tomato seedlings; conditions: spray at 10 ppm in 10% acetone/90% water with 0.05% Silwett L-77; air-dried four hours; ethylene 10 ppm v/v; scored visually sixteen hours later; 10 = complete protection, 0 = no protection
Experimental: as §1, §2
Spray application treatment entails using a DeVilbiss atomizer to completely cover all foliage and stems of two pots of Patio var. tomato plants with the appropriate amount of experimental compound dissolved in 10% acetone/90% water with 0.05% Silwett L-77 surfactant. Plants are air-dried in a drying hood for four hours then transferred to a 4.8 L polystyrene chamber which is sealed.
Ethylene gas equal to 10 ppm v/v final concentration is injected into the sealed chamber. Sixteen hours later the chambers are opened in an exhaust hood, allowed to air and the plants scored visually for the degree of protection against ethylene-induced epinasty conferred by the experimental compound when compared to ethylene treated and untreated controls on a scale of 0 to 10. A rating of 10 means complete protection. […]

C1=C2CCCCCC12 (centres unmarked) [Compound 1, Bicyclo[5.1.0]oct-1(8)-ene]
Gas @ 10 ppm: degree of protection against ethylene-induced epinasty, rating on a scale of 0 to 10 [1]: 8 | Spray @ 10 ppm: degree of protection against ethylene-induced epinasty, rating on a scale of 0 to 10 [2]: 0

CCCCCCCCC1=CC12OCC(C)(C)CO2 [Compound 2, 6.6-Dimethyl-1-octyl-4.8-dioxa-spiro[2.5]oct-1-ene]
Gas @ 10 ppm: degree of protection against ethylene-induced epinasty, rating on a scale of 0 to 10 [1]: 0 | Gas @ 1000 ppm: degree of protection against ethylene-induced epinasty, rating on a scale of 0 to 10 ([1]; compound as volatile gas at 1000 ppm v/v): 4 | Spray @ 10 ppm: degree of protection against ethylene-induced epinasty, rating on a scale of 0 to 10 [2]: 0
